Measurements: ChEMBL document CHEMBL4483862, “Open-source discovery of chemical leads for next-generation chemoprotective antimalarials” (2018)

Test system: Plasmodium berghei
Assay: Luciferase/luciferin-expressing antifolate-resistant parasites were used to infect a culture of HepG2 cells that were pre-incubated with compounds. Infected hepatocytes emit light due to the luciferase reaction. Assay results are presented as the percent inhibition of light emission compared to control. […]
Format: functional
Settings: sporozoite; for IC90: read-out: LUCIFERASE INFECTION ASSAY - IC90

Compound	IC90 [µM]	further results
OC(COc1ccc2cc(Br)ccc2c1)CN1CCCC1 (stereo not given)	> 9.42	IC50 (FFLUC_HILL_SLOPE 1.55, FFLUC_R_SQUARED 0.115, PBLUC_HILL_SLOPE 1.17, PBLUC_R_SQUARED 0.42, read-out: LUCIFERASE INFECTION ASSAY - IC50): 4.73 µM
COCCn1c(C)cc(C(=O)CSc2nnc(C)s2)c1C	> 10.1	IC50 (FFLUC_HILL_SLOPE 1.54, FFLUC_R_SQUARED 0.663, PBLUC_HILL_SLOPE 0.577, PBLUC_R_SQUARED 0.574, read-out: LUCIFERASE INFECTION ASSAY - IC50): 0.418 µM
O=[N+]([O-])c1ccc(Sc2ccc(F)cc2)c2nonc12	> 11.3	IC50 (FFLUC_HILL_SLOPE 1.53, FFLUC_R_SQUARED 0.17, HEPG2TOX_HILL_SLOPE 11.1, HEPG2TOX_R_SQUARED 0.647, PBLUC_HILL_SLOPE 22.5, PBLUC_R_SQUARED 0.184, read-out: LUCIFERASE INFECTION ASSAY - IC50): 10.5 µM
O=C(/C=c1/[nH]c(=O)/c(=C/c2ccc(-c3ccccc3F)s2)s1)c1ccncc1	> 10	IC50 (FFLUC_HILL_SLOPE 1.61, FFLUC_R_SQUARED 0.374, read-out: LUCIFERASE INFECTION ASSAY - IC50): > 10 µM
CSc1nnc(SC2=CC(=O)CC(c3ccccc3)C2)s1 (stereo not given)	> 9.87	IC50 (FFLUC_HILL_SLOPE 1.55, FFLUC_R_SQUARED 0.208, HEPG2TOX_HILL_SLOPE 8.38, HEPG2TOX_R_SQUARED 0.886, read-out: LUCIFERASE INFECTION ASSAY - IC50): > 9.87 µM
COC(=O)c1c(C)[nH]c(C2=NNC(=NC3CC3)SC2)c1C	0.0583	IC50 (FFLUC_HILL_SLOPE 1.61, FFLUC_R_SQUARED 0.895, PBLUC_HILL_SLOPE 1.62, PBLUC_R_SQUARED 0.572, read-out: LUCIFERASE INFECTION ASSAY - IC50): 0.015 µM
OC1CCC(Nc2nn3cc(-c4ccccc4)nc3s2)CC1 (stereo not given)	0.247	IC50 (FFLUC_HILL_SLOPE 1.59, FFLUC_R_SQUARED 0.907, PBLUC_HILL_SLOPE 0.891, PBLUC_R_SQUARED 0.938, read-out: LUCIFERASE INFECTION ASSAY - IC50): 0.0209 µM
Cc1cc(O)cc2c1C(=O)/C(=C/c1ccccc1F)O2	11.8	IC50 (FFLUC_HILL_SLOPE 1.55, FFLUC_R_SQUARED 0.688, HEPG2TOX_HILL_SLOPE 12, HEPG2TOX_R_SQUARED 0.541, PBLUC_HILL_SLOPE 35.8, PBLUC_R_SQUARED 0.416, read-out: LUCIFERASE INFECTION ASSAY - IC50): 11.1 µM
COc1ccc(C(C)(C)C)cc1NC(=O)COC(=O)c1c(-c2ccccc2)csc1NC(=O)C=C(C)C	8.12	IC50 (FFLUC_HILL_SLOPE 1.58, FFLUC_R_SQUARED 0.454, PBLUC_HILL_SLOPE 2.65, PBLUC_R_SQUARED 0.35, read-out: LUCIFERASE INFECTION ASSAY - IC50): 3.55 µM
N#CN=c1nc(/C=C/c2ccc(Br)cc2)[nH]c(-c2ccccc2O)n1	5.46	IC50 (FFLUC_HILL_SLOPE 1.52, FFLUC_R_SQUARED 0.887, PBLUC_HILL_SLOPE 1.8, PBLUC_R_SQUARED 0.711, read-out: LUCIFERASE INFECTION ASSAY - IC50): 1.61 µM
N#C/C(=N\Nc1ccc(F)cc1)S(=O)(=O)c1ccc(Cl)cc1	4.33	IC50 (FFLUC_HILL_SLOPE 1.6, FFLUC_R_SQUARED 0.662, HEPG2TOX_HILL_SLOPE 1.9, HEPG2TOX_R_SQUARED 0.994, PBLUC_HILL_SLOPE 9.61, PBLUC_R_SQUARED 0.336, read-out: LUCIFERASE INFECTION ASSAY - IC50): 3.44 µM
N#CC(C#N)=NNc1ccccc1Oc1ccc(Cl)cc1Cl	> 9.96	IC50 (FFLUC_HILL_SLOPE 1.54, FFLUC_R_SQUARED 0.588, HEPG2TOX_HILL_SLOPE 1.18, HEPG2TOX_R_SQUARED 0.604, read-out: LUCIFERASE INFECTION ASSAY - IC50): > 9.96 µM
CCn1c(SCC(=O)N2N=C(c3ccco3)CC2c2ccco2)nc2ccsc2c1=O (stereo not given)	> 10	IC50 (FFLUC_HILL_SLOPE 1.6, FFLUC_R_SQUARED 0.281, read-out: LUCIFERASE INFECTION ASSAY - IC50): > 10 µM
Cc1ccc(-n2c(N(C)C)nc(/C=C(\C#N)C(=O)NC(C)c3ccccc3)c2Cl)cc1 (stereo not given)	> 10	IC50 (FFLUC_HILL_SLOPE 1.62, FFLUC_R_SQUARED 0.252, read-out: LUCIFERASE INFECTION ASSAY - IC50): > 10 µM
O=C1/C(=C\c2cccnc2)SC(=S)N1Cc1ccncc1	> 10.5	IC50 (FFLUC_HILL_SLOPE 1.57, FFLUC_R_SQUARED 0.87, HEPG2TOX_HILL_SLOPE 6.45, HEPG2TOX_R_SQUARED 0.698, PBLUC_HILL_SLOPE 14.6, PBLUC_R_SQUARED 0.23, read-out: LUCIFERASE INFECTION ASSAY - IC50): 10.5 µM
CC1(C)CCc2cc(/C=N/C(C#N)C(=N)C#N)ccc2O1 (stereo not given)	> 11.8	IC50 (FFLUC_HILL_SLOPE 1.61, FFLUC_R_SQUARED 0.207, read-out: LUCIFERASE INFECTION ASSAY - IC50): > 11.8 µM
COCC(C)n1c(C)cc(C(=O)CN2C(=O)c3ccccc3S2(=O)=O)c1C (stereo not given)	> 10	IC50 (FFLUC_HILL_SLOPE 1.61, FFLUC_R_SQUARED 0.328, read-out: LUCIFERASE INFECTION ASSAY - IC50): > 10 µM
CC(OC(=O)c1c2c(nc3ccccc13)/C(=C/c1cccs1)CCC2)C(=O)Nc1ccccc1C#N (stereo not given)	3.58	IC50 (FFLUC_HILL_SLOPE 1.58, FFLUC_R_SQUARED 0.34, HEPG2TOX_HILL_SLOPE 8.31, HEPG2TOX_R_SQUARED 0.803, PBLUC_HILL_SLOPE 17.4, PBLUC_R_SQUARED 0.614, read-out: LUCIFERASE INFECTION ASSAY - IC50): 3.16 µM
Cc1ccc(N2C(=O)c3ccccc3C(C=NNC(=O)c3ccc(CSc4ccc(Cl)cc4)cc3)C2=O)cc1C (stereo not given)	> 10	IC50 (FFLUC_HILL_SLOPE 1.61, FFLUC_R_SQUARED 0.665, HEPG2TOX_HILL_SLOPE 1.11, HEPG2TOX_R_SQUARED 0.878, read-out: LUCIFERASE INFECTION ASSAY - IC50): > 10 µM
FC(F)(F)c1ccc(N/N=C/c2sc(N3CCOCC3)nc2-c2ccccc2)c(Cl)c1	> 10	IC50 (FFLUC_HILL_SLOPE 1.6, FFLUC_R_SQUARED 0.81, read-out: LUCIFERASE INFECTION ASSAY - IC50): > 10 µM
CC(C)n1ncc2c(C(=O)Nc3sccc3C#N)cc(C3CC3)nc21	> 10	IC50 (FFLUC_HILL_SLOPE 1.6, FFLUC_R_SQUARED 0.58, HEPG2TOX_HILL_SLOPE 1.47, HEPG2TOX_R_SQUARED 0.871, PBLUC_HILL_SLOPE 3.01, PBLUC_R_SQUARED 0.133, read-out: LUCIFERASE INFECTION ASSAY - IC50): 5.55 µM
O=C(c1cnc2cc3c(cc2c1)OCCCO3)c1ccccc1O	5.25	IC50 (FFLUC_HILL_SLOPE 1.6, FFLUC_R_SQUARED 0.767, HEPG2TOX_HILL_SLOPE 8.36, HEPG2TOX_R_SQUARED 0.65, PBLUC_HILL_SLOPE 1.47, PBLUC_R_SQUARED 0.802, read-out: LUCIFERASE INFECTION ASSAY - IC50): 1.17 µM
CCN(c1ccc(-c2csc(Nc3ccc4c(c3)OCCO4)n2)cc1)S(C)(=O)=O	5.7	IC50 (FFLUC_HILL_SLOPE 1.56, FFLUC_R_SQUARED 0.608, HEPG2TOX_HILL_SLOPE 4.65, HEPG2TOX_R_SQUARED 0.413, PBLUC_HILL_SLOPE 3.4, PBLUC_R_SQUARED 0.614, read-out: LUCIFERASE INFECTION ASSAY - IC50): 2.99 µM
Cc1c(C)n(CCCO)c2ncn3nc(-c4ccc(F)cc4)nc3c12	5.99	IC50 (FFLUC_HILL_SLOPE 1.57, FFLUC_R_SQUARED 0.582, PBLUC_HILL_SLOPE 0.753, PBLUC_R_SQUARED 0.936, read-out: LUCIFERASE INFECTION ASSAY - IC50): 0.324 µM
CC(=O)N(c1nc(/C=C2\CCOc3ccc(F)cc3C2=O)cs1)c1cccc(C)c1C	> 10	IC50 (FFLUC_HILL_SLOPE 1.6, FFLUC_R_SQUARED 0.338, PBLUC_HILL_SLOPE 1.6, PBLUC_R_SQUARED 0.162, read-out: LUCIFERASE INFECTION ASSAY - IC50): > 10 µM
Cc1noc(C)c1COc1cccc(C(=O)Nc2cccc(S(=O)(=O)Nc3cccc(C(F)(F)F)c3)c2)c1	> 10	IC50 (FFLUC_HILL_SLOPE 1.54, FFLUC_R_SQUARED 0.286, HEPG2TOX_HILL_SLOPE 4.14, HEPG2TOX_R_SQUARED 0.909, PBLUC_HILL_SLOPE 1.42, PBLUC_R_SQUARED 0.59, read-out: LUCIFERASE INFECTION ASSAY - IC50): 6.04 µM
Nc1nc2c(C(=O)c3cccs3)nnn2c2ccc(Cl)cc12	0.489	IC50 (FFLUC_HILL_SLOPE 1.53, FFLUC_R_SQUARED 0.767, PBLUC_HILL_SLOPE 0.914, PBLUC_R_SQUARED 0.801, read-out: LUCIFERASE INFECTION ASSAY - IC50): 0.0442 µM
COc1ccc2[nH]cc(CCNC(=O)c3ccc(-c4cccc(NC(C)=O)c4)nc3NCc3cccnc3)c2c1	5.13	IC50 (FFLUC_HILL_SLOPE 1.54, FFLUC_R_SQUARED 0.292, HEPG2TOX_HILL_SLOPE 0.912, HEPG2TOX_R_SQUARED 0.95, PBLUC_HILL_SLOPE 1.88, PBLUC_R_SQUARED 0.271, read-out: LUCIFERASE INFECTION ASSAY - IC50): 1.59 µM
CCCCCC1/C(=N\O)CC(c2ccccc2)N(C)C1c1ccccc1 (stereo not given)	> 9.42	IC50 (FFLUC_HILL_SLOPE 1.59, FFLUC_R_SQUARED 0.859, read-out: LUCIFERASE INFECTION ASSAY - IC50): > 9.42 µM
O=C(OCCSc1ccc([N+](=O)[O-])c2nonc12)c1ccc(F)cc1	> 9.08	IC50 (FFLUC_HILL_SLOPE 1.52, FFLUC_R_SQUARED 0.911, HEPG2TOX_HILL_SLOPE 8.69, HEPG2TOX_R_SQUARED 0.77, PBLUC_HILL_SLOPE 16.5, PBLUC_R_SQUARED 0.0304, read-out: LUCIFERASE INFECTION ASSAY - IC50): > 9.08 µM
